The record followed here is patent publication US20240158412A1 (Faxian Therapeutics, LLC, priority 2021, published 2024).

SMILES strings stand for the structures. pIC50: −log10 of the molar value.
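Also: fluorescence intensity readout of USP7 enzymatic activity, reaction incubated 90 min at room temperature.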

In the experiment the target is USP7 (Homo sapiens, UniProt Q93009). Put plainly: biochemical.
Chain of USP7 (Q93009 whole entry): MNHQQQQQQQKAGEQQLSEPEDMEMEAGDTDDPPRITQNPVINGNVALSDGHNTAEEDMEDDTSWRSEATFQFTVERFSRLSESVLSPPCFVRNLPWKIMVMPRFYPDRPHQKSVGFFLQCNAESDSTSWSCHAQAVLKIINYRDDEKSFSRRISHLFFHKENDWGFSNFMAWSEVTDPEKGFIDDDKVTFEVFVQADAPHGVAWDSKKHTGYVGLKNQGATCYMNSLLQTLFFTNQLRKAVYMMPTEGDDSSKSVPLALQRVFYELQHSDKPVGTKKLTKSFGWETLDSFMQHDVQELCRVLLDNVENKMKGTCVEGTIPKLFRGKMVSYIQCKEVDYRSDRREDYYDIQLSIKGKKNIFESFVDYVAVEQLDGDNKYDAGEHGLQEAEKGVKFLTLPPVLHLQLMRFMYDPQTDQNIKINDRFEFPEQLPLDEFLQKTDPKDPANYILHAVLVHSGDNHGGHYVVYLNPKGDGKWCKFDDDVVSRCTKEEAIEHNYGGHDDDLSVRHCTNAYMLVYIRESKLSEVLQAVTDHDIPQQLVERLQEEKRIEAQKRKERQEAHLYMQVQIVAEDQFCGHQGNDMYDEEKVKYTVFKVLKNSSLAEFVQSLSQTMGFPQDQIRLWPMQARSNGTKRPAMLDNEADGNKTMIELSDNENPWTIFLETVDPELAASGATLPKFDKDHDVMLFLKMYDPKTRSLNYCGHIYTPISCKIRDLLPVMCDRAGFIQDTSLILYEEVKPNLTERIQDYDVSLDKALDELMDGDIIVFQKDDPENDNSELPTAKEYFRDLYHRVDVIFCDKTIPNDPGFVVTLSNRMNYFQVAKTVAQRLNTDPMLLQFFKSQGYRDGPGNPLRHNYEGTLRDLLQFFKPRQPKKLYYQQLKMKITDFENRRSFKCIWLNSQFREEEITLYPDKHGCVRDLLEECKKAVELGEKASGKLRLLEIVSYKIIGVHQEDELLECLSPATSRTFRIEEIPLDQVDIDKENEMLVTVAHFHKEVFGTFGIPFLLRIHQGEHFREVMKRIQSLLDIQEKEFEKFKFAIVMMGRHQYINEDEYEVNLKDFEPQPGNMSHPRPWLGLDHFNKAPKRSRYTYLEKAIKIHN
Consider `O=C1CCC(=O)N1Cc1cc2ncnc(-c3cc(Cl)cc4c3N(C3CNC5(CCC5)C3)CCC4)c2s1` (single isomer, unassigned) [Example 161a], for which the pIC50 was more than 8.00.
Molecule `O=C1CCC(=O)N1Cc1cc2ncnc(-c3cc(Cl)cc4c3N(C3CNC5(CCC5)C3)CCC4)c2s1` (single isomer, unassigned) [Example 161b] showed a negative logarithm of the IC50 (pIC50) of 6.00 to 7.00.
The same measure for `O=c1ccn(C2CC2)c(=O)n1Cc1cc2nccc(-c3cc(C(F)(F)F)cc4c3N(C3CNC5(CCC5)C3)CCC4)c2s1` (single isomer, unassigned) [Example 162a]: more than 8.00; for `O=c1ccn(C2CC2)c(=O)n1Cc1cc2nccc(-c3cc(C(F)(F)F)cc4c3N(C3CNC5(CCC5)C3)CCC4)c2s1` (single isomer, unassigned) [Example 162b]: 6.00 to 7.00; for `Cc1cnn(Cc2cc3nccc(-c4cc(C#N)cc5c4N(C4CNC6(CCC6)C4)CCC5)c3s2)c(=O)c1` (single isomer, unassigned) [Example 164a]: more than 8.00.
In the case of `Cc1cnn(Cc2cc3nccc(-c4cc(C#N)cc5c4N(C4CNC6(CCC6)C4)CCC5)c3s2)c(=O)c1` (single isomer, unassigned) [Example 164b] it was 6.00 to 7.00.
Molecule `O=C1CCC(=O)N1Cc1cc2nccc(-c3cc(Cl)cc4c3N(C3CNC5(CCC5)C3)CCO4)c2s1` (single isomer, unassigned) [Example 171a] showed a pIC50 of 6.00 to 7.00.
As for `O=C1CCC(=O)N1Cc1cc2nccc(-c3cc(Cl)cc4c3N(C3CNC5(CCC5)C3)CCO4)c2s1` (single isomer, unassigned) [Example 171b], the negative logarithm of the IC50 (pIC50) is more than 8.00.
The same measure for `O=C1CCC(=O)N1Cc1cc2nccc(-c3cc(Cl)cc4c3N(C3CNC5(CCC5)C3)C(=O)CO4)c2s1` (single isomer, unassigned) [Example 173a]: 7.00 to 8.00; for `O=C1CCC(=O)N1Cc1cc2nccc(-c3cc(Cl)cc4c3N(C3CNC5(CCC5)C3)C(=O)CO4)c2s1` (single isomer, unassigned) [Example 173b]: 6.00 to 7.00.
In the case of `O=C1CCC(=O)N1Cc1cc2nccc(-c3cc(C(F)(F)F)cc4c3N(C3CNC5(CCC5)C3)CCO4)c2s1` (single isomer, unassigned) [Example 175a] it was 6.00 to 7.00; in that of `O=C1CCC(=O)N1Cc1cc2nccc(-c3cc(C(F)(F)F)cc4c3N(C3CNC5(CCC5)C3)CCO4)c2s1` (single isomer, unassigned) [Example 175b], more than 8.00; in that of `Cc1ccnn(Cc2cc3nccc(-c4cc(C(F)(F)F)cc5c4N(C4CNC6(CCC6)C4)CCO5)c3s2)c1=O` (single isomer, unassigned) [Example 176a], 6.00 to 7.00.
The same measure for `O=C1CCC(=O)N1Cc1cc2nccc(-c3cc(Cl)cc4c3N(C3CNC5(CC(F)C5)C3)CCC4)c2s1` (single isomer, unassigned) [Example 177a]: more than 8.00.
As for `O=C1CCC(=O)N1Cc1cc2nccc(-c3cc(Cl)cc4c3N([C@@H]3CCC5(CCCN5)C3)CCC4)c2s1` (single isomer, unassigned) [Example 179a], the pIC50 was 7.00 to 8.00.
In the case of `O=C1CCC(=O)N1Cc1cc2nccc(-c3cc(Cl)cc4c3N([C@@H]3CC[C@@]5(CCCN5)C3)CCC4)c2s1` (single isomer, unassigned) [Example 179b] it was 7.00 to 8.00; in that of `O=C1CCC(=O)N1Cc1cc2nccc(-c3cc(Cl)cc4c3N([C@@H]3CNC(CO)(CO)C3)CCC4)c2s1` (single isomer, unassigned) [Example 181a], more than 8.00.
`O=C1CCC(=O)N1Cc1cc2nccc(-c3cc(Cl)cc4c3N([C@H]3CNC(CO)(CO)C3)CCC4)c2s1` (single isomer, unassigned) [Example 181b] had a pIC50 of 7.00 to 8.00.
`CC(C)(C)c1cnn(Cc2cc3nccc(-c4cc(C#N)cc5c4N([C@@H]4CN[C@@H](CO)C4)C[C@H]4C[C@@H]54)c3s2)c(=O)c1` (single isomer, unassigned) [Example 192a] gave a negative-log IC50 (pIC50) of more than 8.00.
In the case of `CC(C)(C)c1cnn(Cc2cc3nccc(-c4cc(C#N)cc5c4N([C@@H]4CN[C@@H](CO)C4)C[C@@H]4C[C@H]54)c3s2)c(=O)c1` (single isomer, unassigned) [Example 192b] it was more than 8.00; in that of `CC(C)(C)c1cnn(Cc2cc3nccc(-c4cc(C#N)cc5c4N([C@H]4CN[C@@H](CO)C4)C[C@@H]4C[C@H]54)c3s2)c(=O)c1` (single isomer, unassigned) [Example 193a], less than 6.00.
The same measure for `CC(C)(C)c1cnn(Cc2cc3nccc(-c4cc(C#N)cc5c4N([C@H]4CN[C@@H](CO)C4)C[C@H]4C[C@@H]54)c3s2)c(=O)c1` (single isomer, unassigned) [Example 193b]: 7.00 to 8.00.
Regarding `CC1(c2cnn(Cc3cc4nccc(-c5cc(C#N)cc6c5N([C@@H]5CN[C@@H](CO)C5)C[C@H]5C[C@@H]65)c4s3)c(=O)c2)CC1` (single isomer, unassigned) [Example 195a], the negative-log IC50 (pIC50) is more than 8.00.
In the case of `CC1(c2cnn(Cc3cc4nccc(-c5cc(C#N)cc6c5N([C@@H]5CN[C@@H](CO)C5)C[C@@H]5C[C@H]65)c4s3)c(=O)c2)CC1` (single isomer, unassigned) [Example 195b] it was more than 8.00; in that of `COC(=O)[C@@]1(C)C[C@@H](N2CCCc3cc(Cl)cc(-c4ccnc5cc(CN6C(=O)CCC6=O)sc45)c32)CN1` (single isomer, unassigned) [Example 201], 6.00 to 7.00.
In turn, `COC(=O)[C@]1(C)C[C@@H](N2CCCc3cc(Cl)cc(-c4ccnc5cc(CN6C(=O)CCC6=O)sc45)c32)CN1` (single isomer, unassigned) [Example 202] had a negative logarithm of the IC50 (pIC50) of 7.00 to 8.00.
The same measure for `COC(=O)[C@@]1(C)C[C@H](N2CCCc3cc(Cl)cc(-c4ccnc5cc(CN6C(=O)CCC6=O)sc45)c32)CN1` (single isomer, unassigned) [Example 203]: more than 8.00.
In the case of `COC(=O)[C@]1(C)C[C@H](N2CCCc3cc(Cl)cc(-c4ccnc5cc(CN6C(=O)CCC6=O)sc45)c32)CN1` (single isomer, unassigned) [Example 204] it was 6.00 to 7.00.
The same measure for `O=C1C2CC2C(=O)N1Cc1cc2nccc(-c3cc(Cl)cc4c3N([C@H]3CNC(CO)(CO)C3)CCO4)c2s1` (single isomer, unassigned) [Example 212a]: more than 8.00.
With `O=C1C2CC2C(=O)N1Cc1cc2nccc(-c3cc(Cl)cc4c3N([C@@H]3CNC(CO)(CO)C3)CCO4)c2s1` (single isomer, unassigned) [Example 212b], the pIC50 is 7.00 to 8.00.
The same measure for `O=C1CCC(=O)N1Cc1cc2nccc(-c3cc(Cl)cc4c3N([C@H]3CO[C@@H](CO)C3)CCO4)c2s1` (single isomer, unassigned) [Example 227a]: less than 6.00; for `O=C1CCC(=O)N1Cc1cc2nccc(-c3cc(Cl)cc4c3N([C@H]3CO[C@H](CO)C3)CCO4)c2s1` (single isomer, unassigned) [Example 227b]: 6.00 to 7.00; for `O=C1CCC(=O)N1Cc1cc2nccc(-c3cc(Cl)cc4c3N(C3CO[C@@H](CO)C3)CCO4)c2s1` (single isomer, unassigned) [Example 227c]: less than 6.00.
In the case of `O=C1CCC(=O)N1Cc1cc2nccc(-c3cc(Cl)cc4c3C3(CCC4)CNCCO3)c2s1` (single isomer, unassigned) [Example 229a] it was 7.00 to 8.00; in that of `O=C1CCC(=O)N1Cc1cc2nccc(-c3cc(Cl)cc4c3C3(CCC4)CNCCO3)c2s1` (single isomer, unassigned) [Example 229b], less than 6.00.
`O=c1ccn(CC(F)F)c(=O)n1Cc1cc2nccc(-c3cc(Cl)cc4c3N(C3CCNC3)C[C@H]3C[C@@H]43)c2s1` (stereo in doubt) [Example 115, 3-[[7-[(1aS,3R,7bR)-6-chloro-3-pyrrolidin-3-yl-1,1a,2,7b-tetrahydrocyclopropa[c]quinolin-4-yl]thieno[3,2-b]pyridin-2-yl]methyl]-1-(2,2-difluoroethyl)pyrimidine-2,4-dione] showed a pIC50 of more than 8.00.
In turn, `Cn1ccc(=O)n(Cc2cc3nccc(-c4cc(C#N)cc5c4N(C4CNC(C)(C)C4)CCC5)c3s2)c1=O` (stereo in doubt) [Example 121, (S)-1-(5,5-dimethylpyrrolidin-3-yl)-8-(2-((3-methyl-2,6-dioxo-3,6-dihydropyrimidin-1(2H)-yl)methyl)thieno[3,2-b]pyridin-7-yl)-1,2,3,4-tetrahydroquinoline-6-carbonitrile] had a negative-log IC50 (pIC50) of more than 8.00.
The same measure for `CC1(C)CC(N2CCCc3cc(C#N)cc(-c4ccnc5cc(Cn6ncc(C(C)(C)C)cc6=O)sc45)c32)CN1` (stereo in doubt) [Example 132, (S)-8-(2-((4-(tert-butyl)-6-oxopyridazin-1(6H)-yl)methyl)thieno[3,2-b]pyridin-7-yl)-1-(5,5-dimethylpyrrolidin-3-yl)-1,2,3,4-tetrahydroquinoline-6-carbonitrile]: more than 8.00; for `Cn1ccnc(Cc2cc3nccc(-c4cc(Cl)cc5c4N([C@@H]4CNC6(CCC6)C4)CCC5)c3s2)c1=O` (stereo in doubt) [Example 160, 3-((7-(6-chloro-1-(5-azaspiro[3.4]octan-7-yl)-1,2,3,4-tetrahydroquinolin-8-yl)thieno[3,2-b]pyridin-2-yl)methyl)-1-methylpyrazin-2(1H)-one]: 6.00 to 7.00; for `N#Cc1cc(-c2ccnc3cc(Cn4ncc(C5(C(F)(F)F)CC5)cc4=O)sc23)c2c(c1)C1CC1CN2[C@@H]1CN[C@@H](CO)C1` (stereo in doubt) [Example 194b, (1aS,7bR)-3-((3S,5R)-5-(hydroxymethyl)pyrrolidin-3-yl)-4-(2-((6-oxo-4-(1-(trifluoromethyl)cyclopropyl)pyridazin-1(6H)-yl)methyl)thieno[3,2-b]pyridin-7-yl)-1a,2,3,7b-tetrahydro-1H-cyclopropa[c]quinoline-6-carbonitrile]: 7.00 to 8.00.
In the case of `CC(C)(C)c1cnn(Cc2cc3nccc(-c4cc(Cl)cc5c4N(C4CNC(CO)(CO)C4)CCO5)c3s2)c(=O)c1` (stereo in doubt) [Example 213a, (R)-2-((7-(4-(5,5-bis(hydroxymethyl)pyrrolidin-3-yl)-7-chloro-3,4-dihydro-2H-benzo[b][1,4]oxazin-5-yl)thieno[3,2-b]pyridin-2-yl)methyl)-5-(tert-butyl)pyridazin-3(2H)-one] it was 7.00 to 8.00.
